Assay results reported in patent US20130225629A1, “TARGETING PI3K/MTOR SIGNALLING AND NEUTROPHIL RECRUITMENT FOR TREATMENT OF ENTERITIS” (THE UNIVERSITY OF NORTH CAROLINA AT CHAPEL HILL, priority 2012, published 2013).

Experiments:
Cxcl2 mRNA = assay: Real-time RT-PCR of colonic Cxcl2 mRNA; type: in vivo, mice; conditions: AS252424 vs vehicle treated infected mice
Procedure: (§1) Total RNA from colonic tissue was extracted using TRIzol® kit (Invitrogen, Carlsbad, Calif., United States of America). Complementary DNA was prepared using M-MLV (Invitrogen). Messenger RNA levels of proinflammatory genes were determined using SYBR® Green PCR Master Mix (Applied Biosystems, Carlsbad, Calif., United States of America) on an ABI 7900HT Fast Real-Time PCR System and normalized to Gapdh. The polymerase chain reactions were performed according to the manufacturer's recommendation. The following gene primers were used: Gapdh_forward: 5′-[…]-3′ (SEQ ID NO: 2), Gapdh_reverse: 5′-[…]-3′ (SEQ ID NO: 3), II-1_forward: 5′-[…]-3′ (SEQ ID NO: 4), II-1_reverse: 5′-[…]-3′ (SEQ ID NO: 5), Cxcl2_forward: 5′-[…]-3′ (SEQ ID NO: 6), Cxcl2_reverse: 5′-[…]-3′ (SEQ ID NO: 7), II-17a_forward: 5′-[…]-3′ (SEQ ID NO: 8), II-17a_reverse: 5′-[…]-3′ (SEQ ID NO: 9), II12p40_forward: […] (SEQ ID NO: 10), II12p40_reverse: […] (SEQ ID NO: 11), Tnf forward: […] (SEQ ID NO: 12), Tnf reverse: […] (SEQ ID NO: 13).
(§2) Total RNA from intestinal tissues was extracted using TRIzol® kit (Invitrogen, Carlsbad, Calif., United States of America) following the manufacture's guide. cDNA was reverse-transcribed using M-MLV (Invitrogen). Proinflammatory 111β, Cxcl2, II17a and Tnfα mRNA expression levels were measured using SYBR® Green PCR Master mix (Applied Biosystems, Carlsbad, Calif., United States of America) on an ABI 7900HT Fast Real-Time PCR System and normalized to Gapdh. The PCR primers used were reported previously. (Sun et al., 2012). The PCR reactions were performed for 40 cycles according to the manufacturer's recommendation, and RNA fold changes were calculated using the ΔΔct method.

II-17a mRNA = assay: Real-time RT-PCR of colonic II-17a mRNA; type: in vivo, mice; conditions: AS252424 vs vehicle treated infected mice
Procedure: as §1, §2

C. jejuni = assay: Colonic crypt abscess count in C. jejuni infected mice; type: in vivo; conditions: AS252424-treated II10−/− mice vs vehicle
Source text: All animal protocols were approved by the Institutional Animal Care and Use Committee of the University of North Carolina at Chapel Hill (Chapel Hill, N.C., United States of America). Germ-free 8-12 week-old II10^−/−; NF-κBEGFP (129/SvEv; C57BL/6 mixed background), II10^−/− and II10^−/−; Rag2^−/− mice (129/SvEv) were transferred from germ-free isolators and immediately gavaged with a single dose of 10^9 C. jejuni cfu/mouse (strain 81-176 (Korlath et al., 1985)) and sacrificed after up to 14 days as described previously (Sun et al., 2012). Specific pathogen free (SPF) housed Wt, II10^−/− and Pi3kγ^−/− (Sasaki et al., 2000) mice all on a 129/SvEv background were gavaged 10^9 C. jejuni cfu/mouse one day after 7 day treatment with antibiotics cocktail (streptomycin 2 g/L, gentamycin 0.5 g/L, bacteriocin 1 g/L and ciprofloxacin 0.125 g/L) (Sun et al., 2012). […] Histological images were acquired using a DP71 camera and DP Controller 3.1.1.276 (Olympus, Center Valley, Pa., United States of America), and intestinal inflammation was scored on a scale of 0 to 4 as described before (Lippert et al., 2009; Sun et al., 2012). Neutrophils in colonic tissues were identified based on morphological features using H&E stained sections and counted in 5 fields of view/mouse using a microscope. Data were expressed as average counts/mouse.

SMILES: O=C1NC(=O)/C(=C/c2ccc(-c3ccc(F)cc3O)o2)S1 [AS252424]
- block of C. jejuni-induced Cxcl2 mRNA accumulation (Cxcl2 mRNA): 73%
- block of C. jejuni-induced II17a mRNA accumulation (II-17a mRNA): 72%
- reduction of C. jejuni-induced crypt abscesses (C. jejuni): 95%
